In US20090118332A1, “Therapeutic Agents - 551” (AstraZeneca AB, priority 2006, published 2009):

molecular target: T1, human Fatty Acid Synthase (Homo sapiens, UniProt P49327); experiment: Human FAS enzyme assay (decrease in NADPH fluorescence); type: biochemical; conditions: % inhibition at a concentration of 100 μmolar
T1 construct: made in house
Procedure, shortened: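 In-house human FAS was preincubated with compound and NADPH for 15 min at room temperature in 0.1 M Tris pH 7.5 with EDTA, glutathione and BSA. Malonyl CoA and acetyl CoA (500 μM and 150 μM in the added mix) were then added for 60 min. IC50 came from time-zero-subtracted NADPH fluorescence (340/460 nm).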

T1 sequence (P49327 whole entry): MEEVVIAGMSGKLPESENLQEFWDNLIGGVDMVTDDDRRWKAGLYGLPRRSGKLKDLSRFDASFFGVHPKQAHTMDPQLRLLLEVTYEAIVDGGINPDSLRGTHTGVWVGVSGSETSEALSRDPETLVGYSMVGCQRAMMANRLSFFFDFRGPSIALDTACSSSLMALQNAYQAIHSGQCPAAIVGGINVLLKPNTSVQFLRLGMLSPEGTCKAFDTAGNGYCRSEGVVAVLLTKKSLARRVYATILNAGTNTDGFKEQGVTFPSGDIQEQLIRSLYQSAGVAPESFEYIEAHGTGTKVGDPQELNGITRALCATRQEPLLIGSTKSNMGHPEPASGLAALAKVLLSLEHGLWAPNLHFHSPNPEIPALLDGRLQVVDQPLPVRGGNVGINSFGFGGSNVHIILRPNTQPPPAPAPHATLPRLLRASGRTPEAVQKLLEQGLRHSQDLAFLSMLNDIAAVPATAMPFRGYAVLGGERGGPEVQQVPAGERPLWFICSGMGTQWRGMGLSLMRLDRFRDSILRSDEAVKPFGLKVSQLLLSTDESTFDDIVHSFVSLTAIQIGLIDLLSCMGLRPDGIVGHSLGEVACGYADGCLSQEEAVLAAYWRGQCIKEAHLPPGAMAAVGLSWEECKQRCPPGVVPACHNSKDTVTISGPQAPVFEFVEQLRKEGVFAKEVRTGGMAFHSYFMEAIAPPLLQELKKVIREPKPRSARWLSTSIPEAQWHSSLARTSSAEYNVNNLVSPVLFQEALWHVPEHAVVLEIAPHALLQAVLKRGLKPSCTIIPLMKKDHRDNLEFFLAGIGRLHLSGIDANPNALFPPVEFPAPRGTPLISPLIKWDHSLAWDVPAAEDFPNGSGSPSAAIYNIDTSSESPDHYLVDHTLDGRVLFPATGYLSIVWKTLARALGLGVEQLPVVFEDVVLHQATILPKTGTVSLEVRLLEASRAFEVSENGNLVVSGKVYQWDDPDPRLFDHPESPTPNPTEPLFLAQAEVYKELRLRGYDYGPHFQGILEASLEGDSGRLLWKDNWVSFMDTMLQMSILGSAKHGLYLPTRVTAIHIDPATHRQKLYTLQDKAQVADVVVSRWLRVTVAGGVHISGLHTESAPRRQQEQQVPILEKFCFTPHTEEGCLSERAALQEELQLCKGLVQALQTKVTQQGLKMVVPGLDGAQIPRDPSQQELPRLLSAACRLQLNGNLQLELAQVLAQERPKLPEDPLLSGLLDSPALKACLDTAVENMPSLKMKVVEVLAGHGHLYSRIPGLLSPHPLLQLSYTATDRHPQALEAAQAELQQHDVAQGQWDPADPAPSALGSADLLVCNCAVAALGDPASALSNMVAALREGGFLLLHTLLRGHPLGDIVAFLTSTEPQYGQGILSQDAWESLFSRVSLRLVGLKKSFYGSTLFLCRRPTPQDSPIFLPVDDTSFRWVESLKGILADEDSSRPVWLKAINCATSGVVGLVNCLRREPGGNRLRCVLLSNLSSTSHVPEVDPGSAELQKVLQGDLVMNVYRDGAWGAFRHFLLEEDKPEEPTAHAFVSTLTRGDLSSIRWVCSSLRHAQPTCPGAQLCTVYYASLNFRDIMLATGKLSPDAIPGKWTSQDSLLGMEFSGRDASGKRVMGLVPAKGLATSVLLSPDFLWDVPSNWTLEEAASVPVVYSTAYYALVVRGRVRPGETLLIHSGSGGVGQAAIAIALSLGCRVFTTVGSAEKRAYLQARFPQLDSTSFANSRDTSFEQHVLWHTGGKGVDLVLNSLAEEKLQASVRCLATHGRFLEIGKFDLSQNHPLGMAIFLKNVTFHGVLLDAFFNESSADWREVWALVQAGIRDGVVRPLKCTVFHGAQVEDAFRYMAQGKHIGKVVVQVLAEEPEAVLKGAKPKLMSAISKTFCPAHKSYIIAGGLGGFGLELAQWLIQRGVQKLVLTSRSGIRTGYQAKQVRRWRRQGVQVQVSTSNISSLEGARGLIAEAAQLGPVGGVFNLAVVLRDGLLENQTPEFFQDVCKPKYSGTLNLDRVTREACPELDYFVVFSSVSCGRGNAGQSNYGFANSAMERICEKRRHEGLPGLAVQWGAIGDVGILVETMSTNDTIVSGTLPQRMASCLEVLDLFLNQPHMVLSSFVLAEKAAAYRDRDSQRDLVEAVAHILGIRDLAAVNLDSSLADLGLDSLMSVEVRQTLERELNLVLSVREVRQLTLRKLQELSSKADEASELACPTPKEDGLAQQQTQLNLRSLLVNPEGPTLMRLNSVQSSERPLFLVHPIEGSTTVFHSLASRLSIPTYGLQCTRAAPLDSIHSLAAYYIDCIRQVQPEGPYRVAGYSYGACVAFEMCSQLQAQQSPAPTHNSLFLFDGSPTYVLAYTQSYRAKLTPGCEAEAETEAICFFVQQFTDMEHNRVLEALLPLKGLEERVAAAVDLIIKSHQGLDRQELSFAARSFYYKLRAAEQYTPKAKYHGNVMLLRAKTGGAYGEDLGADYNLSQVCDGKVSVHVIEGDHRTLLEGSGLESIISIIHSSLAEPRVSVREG

inhibition at 100 µM [%] | SMILES
93.6 | Cc1ccc(C(=O)N2CCC(c3ccc(C#N)cc3)CC2)cc1NC(=O)NCc1cccc(N)c1 [Example 85, 3-[(3-aminophenyl)methyl]-1-[5-[4-(4-cyanophenyl)piperidine-1-carbonyl]-2-methyl-phenyl]urea]
94 | Cc1ccc(C(=O)N2CCC(c3ccc(C#N)cc3)CC2)cc1NC(=O)NCCNS(=O)(=O)c1ccccc1 [Example 86, 3-[2-(benzenesulfonamido)ethyl]-1-[5-[4-(4-cyanophenyl)piperidine-1-carbonyl]-2-methyl-phenyl]urea]
92.5 | Cc1ccc(C(=O)N2CCC(c3ccc(C#N)cc3)CC2)cc1NC(=O)NCCNc1ccc([N+](=O)[O-])cc1 [Example 87, 1-[5-[4-(4-cyanophenyl)piperidine-1-carbonyl]-2-methyl-phenyl]-3-[2-[(4-nitrophenyl)amino]ethyl]urea]
87.6 | Cc1ccc(C(=O)N2CCC(c3ccc(C#N)cc3)CC2)cc1NC(=O)NC(C)c1ccc(F)cc1 (stereo not drawn) [Example 88, 1-[5-[4-(4-cyanophenyl)piperidine-1-carbonyl]-2-methyl-phenyl]-3-[1-(4-fluorophenyl)ethyl]urea]
93.1 | Cc1ccc(C(=O)N2CCC(c3ccc(C#N)cc3)CC2)cc1NC(=O)NCc1ccoc1 [Example 89, 1-[5-[4-(4-cyanophenyl)piperidine-1-carbonyl]-2-methyl-phenyl]-3-(3-furylmethyl)urea]
93.6 | Cc1ccc(C(=O)N2CCC(c3ccc(C#N)cc3)CC2)cc1NC(=O)NCCO [Example 90, 1-[5-[4-(4-cyanophenyl)piperidine-1-carbonyl]-2-methyl-phenyl]-3-(2-hydroxyethyl)urea]
95.9 | Cc1ccc(C(=O)N2CCC(c3ccc(C#N)cc3)CC2)cc1NC(=O)NCCNC(=O)c1ccccn1 [Example 91, N-[2-[[5-[4-(4-cyanophenyl)piperidine-1-carbonyl]-2-methyl-phenyl]carbamoylamino]ethyl]pyridine-2-carboxamide]
102 | Cc1ccc(C(=O)N2CCC(c3ccc(C#N)cc3)CC2)cc1NC(=O)NCCNS(=O)(=O)N(C)C [Example 92, 1-[5-[4-(4-cyanophenyl)piperidine-1-carbonyl]-2-methyl-phenyl]-3-[2-(dimethylsulfamoylamino)ethyl]urea]
90.1 | Cc1ccc(C(=O)N2CCC(c3ccc(C#N)cc3)CC2)cc1NC(=O)NC(C)(C)CNC(=O)c1cccnc1 [Example 93, N-[2-[[5-[4-(4-cyanophenyl)piperidine-1-carbonyl]-2-methyl-phenyl]carbamoylamino]-2-methyl-propyl]pyridine-3-carboxamide]
89.6 | Cc1ccc(C(=O)N2CCC(c3ccc(C#N)cc3)CC2)cc1NC(=O)NCCNc1nc(N)nc(C)c1C [Example 94, 3-[2-[(2-amino-5,6-dimethyl-pyrimidin-4-yl)amino]ethyl]-1-[5-[4-(4-cyanophenyl)piperidine-1-carbonyl]-2-methyl-phenyl]urea]
94.4 | Cc1ccc(C(=O)N2CCC(c3ccc(C#N)cc3)CC2)cc1NC(=O)NCCNc1ncnc2[nH]cnc12 [Example 95, 1-[5-[4-(4-cyanophenyl)piperidine-1-carbonyl]-2-methyl-phenyl]-3-[2-(9H-purin-6-ylamino)ethyl]urea]
103 | CC(C)=CCNC(=O)Nc1cc(C(=O)N2CCC(c3ccc(C#N)cc3)CC2)ccc1C [Example 96, 1-[5-[4-(4-cyanophenyl)piperidine-1-carbonyl]-2-methyl-phenyl]-3-(3-methylbut-2-enyl)urea]
95.5 | Cc1ccc(C(=O)N2CCC(c3ccc(C#N)cc3)CC2)cc1NC(=O)NC1CN(C(=O)OC(C)(C)C)C1 [Example 97, tert-butyl 3-[[5-[4-(4-cyanophenyl)piperidine-1-carbonyl]-2-methyl-phenyl]carbamoylamino]azetidine-1-carboxylate]
91.9 | Cc1ccc(C(=O)N2CCC(c3ccc(C#N)cc3)CC2)cc1NC(=O)NC(C)c1ccc(S(C)(=O)=O)cc1 (stereo not drawn) [Example 98, 1-[5-[4-(4-cyanophenyl)piperidine-1-carbonyl]-2-methyl-phenyl]-3-[1-(4-methylsulfonylphenyl)ethyl]urea]
90.2 | Cc1ccc(C(=O)N2CCC(c3ccc(C#N)cc3)CC2)cc1NC(=O)NC1Cc2ccncc2NC1=O (stereo not drawn) [Example 99, 1-[5-[4-(4-cyanophenyl)piperidine-1-carbonyl]-2-methyl-phenyl]-3-(2-oxo-3,4-dihydro-1H-1,7-naphthyridin-3-yl)urea]
77.8 | Cc1ccc(C(=O)N2CCC(c3ccc(C#N)cc3)CC2)cc1NC(=O)NCCCN1CCCC(C)C1 (stereo not drawn) [Example 100, 1-[5-[4-(4-cyanophenyl)piperidine-1-carbonyl]-2-methyl-phenyl]-3-[3-(3-methyl-1-piperidyl)propyl]urea]
90.7 | COc1ccc(NCCNC(=O)Nc2cc(C(=O)N3CCC(c4ccc(C#N)cc4)CC3)ccc2C)cc1 [Example 101, 1-[5-[4-(4-cyanophenyl)piperidine-1-carbonyl]-2-methyl-phenyl]-3-[2-[(4-methoxyphenyl)amino]ethyl]urea]

inhibition at 100 µM [%] | SMILES
91.9 | Cc1ccc(C(=O)N2CCC(c3ccc(C#N)cc3)CC2)cc1NC(=O)NCCNC(=O)OC(C)(C)C [Example 102, tert-butyl N-[2-[[5-[4-(4-cyanophenyl)piperidine-1-carbonyl]-2-methyl-phenyl]carbamoylamino]ethyl]carbamate]
91.8 | Cc1ccc(C(=O)N2CCC(c3ccc(C#N)cc3)CC2)cc1NC(=O)NCCN [Example 103, 3-(2-aminoethyl)-1-[5-[4-(4-cyanophenyl)piperidine-1-carbonyl]-2-methyl-phenyl]urea]
74.5 | Cc1ccc(C(=O)N2CCC(c3ccc(C#N)cc3)CC2)cc1NC(=O)NCCNC(=O)C(=O)O [Example 104, 2-[[5-[4-(4-cyanophenyl)piperidine-1-carbonyl]-2-methyl-phenyl]carbamoylamino]ethylcarbamoylformic acid]
79 | Cc1ccc(C(=O)N2CCC(c3ccc(C#N)cc3)CC2)cc1NC(=O)NCCNC(=O)CC(=O)O [Example 104A, 2-[2-[[5-[4-(4-cyanophenyl)piperidine-1-carbonyl]-2-methyl-phenyl]carbamoylamino]ethylcarbamoyl]acetic acid]
92.7 | Cc1ccc(C(=O)N2CCC(c3ccc(C#N)cc3)CC2)cc1NC(=O)N[C@@H](C)c1ccccc1 [Example 105, 1-[5-[4-(4-cyanophenyl)piperidine-1-carbonyl]-2-methyl-phenyl]-3-[(1S)-1-phenylethyl]urea]
90.3 | Cc1ccc(C(=O)N2CCC(c3ccc(C#N)cc3)CC2)cc1NC(=O)N[C@H](C)c1ccccc1 [Example 106, 1-[5-[4-(4-cyanophenyl)piperidine-1-carbonyl]-2-methyl-phenyl]-3-[(1R)-1-phenylethyl]urea]
97.7 | Cc1ccc(C(=O)N2CCC(c3ccc(C#N)cc3)CC2)cc1NC(=O)NC1CCC(O)CC1 (stereo not drawn) [Example 107, 1-[5-[4-(4-cyanophenyl)piperidine-1-carbonyl]-2-methyl-phenyl]-3-(4-hydroxycyclohexyl)urea]
91.8 | Cc1ccc(C(=O)N2CCC(c3ccc(C#N)cc3)CC2)cc1NC(=O)NCc1cccc(C#N)c1 [Example 108, 3-[(3-cyanophenyl)methyl]-1-[5-[4-(4-cyanophenyl)piperidine-1-carbonyl]-2-methyl-phenyl]urea]
98.3 | Cc1ccc(C(=O)N2CCC(c3ccc(C#N)cc3)CC2)cc1NC(=O)NCCNS(C)(=O)=O [Example 109, 1-[5-[4-(4-cyanophenyl)piperidine-1-carbonyl]-2-methyl-phenyl]-3-(2-methanesulfonamidoethyl)urea]
94.2 | CCS(=O)(=O)NCCNC(=O)Nc1cc(C(=O)N2CCC(c3ccc(C#N)cc3)CC2)ccc1C [Example 110, 3-[5-[4-(4-cyanophenyl)piperidine-1-carbonyl]-2-methyl-phenyl]-1-[2-(ethylsulfonylamino)ethyl]urea]
95.6 | CCC(=O)NCCNC(=O)Nc1cc(C(=O)N2CCC(c3ccc(C#N)cc3)CC2)ccc1C [Example 111, N-[2-[[5-[4-(4-cyanophenyl)piperidine-1-carbonyl]-2-methyl-phenyl]carbamoylamino]ethyl]propanamide]
94.3 | Cc1ccc(C(=O)N2CCC(c3ccc(C#N)cc3)CC2)cc1NC(=O)NCCNC(=O)C(C)C [Example 112, N-[2-[[5-[4-(4-cyanophenyl)piperidine-1-carbonyl]-2-methyl-phenyl]carbamoylamino]ethyl]-2-methyl-propanamide]
92.7 | CC(=O)OCC(=O)NCCNC(=O)Nc1cc(C(=O)N2CCC(c3ccc(C#N)cc3)CC2)ccc1C [Example 113, 2-[[5-[4-(4-cyanophenyl)piperidine-1-carbonyl]-2-methyl-phenyl]carbamoylamino]ethylcarbamoylmethyl acetate]
89.4 | Cc1ccc(C(=O)N2CCC(c3ccc(C#N)cc3)CC2)cc1NC(=O)NCCNC(=O)CO [Example 114, N-[2-[[5-[4-(4-cyanophenyl)piperidine-1-carbonyl]-2-methyl-phenyl]carbamoylamino]ethyl]-2-hydroxy-acetamide]
92.9 | Cc1ccc(C(=O)N2CCC(c3ccc(C#N)cc3)CC2)cc1NC(=O)NCCN(C)C(=O)OC(C)(C)C [Example 115, tert-butyl N-[2-[[5-[4-(4-cyanophenyl)piperidine-1-carbonyl]-2-methyl-phenyl]carbamoylamino]ethyl]-N-methyl-carbamate]
86.2 | CNCCNC(=O)Nc1cc(C(=O)N2CCC(c3ccc(C#N)cc3)CC2)ccc1C [Example 116, 1-[5-[4-(4-cyanophenyl)piperidine-1-carbonyl]-2-methyl-phenyl]-3-(2-methylaminoethyl)urea]
